Assay results taken from patent US5384408A, “Substituted pyrazine and its salts, compositions containing them and their use in medicine” (priority 1993, dated 1995).
pEC50: −log10 of the molar value. Entries after “also recorded” stand apart in the source; their conditions may differ. Read-outs that look alike come from different tables or passages of the source.

What was measured:
M1 (ganglion) = molecular target: T1, M1 (ganglion) (Rattus norvegicus, UniProt P08482); experiment: functional selectivity, ganglion M1 agonist activity (methods of J. Med. Chem. 1987, 30, 969-975); assay type: biochemical
T1 construct: as measured in the rat ganglion; from tissue; host or cells: rat ganglion
T1 sequence (P08482 1-460): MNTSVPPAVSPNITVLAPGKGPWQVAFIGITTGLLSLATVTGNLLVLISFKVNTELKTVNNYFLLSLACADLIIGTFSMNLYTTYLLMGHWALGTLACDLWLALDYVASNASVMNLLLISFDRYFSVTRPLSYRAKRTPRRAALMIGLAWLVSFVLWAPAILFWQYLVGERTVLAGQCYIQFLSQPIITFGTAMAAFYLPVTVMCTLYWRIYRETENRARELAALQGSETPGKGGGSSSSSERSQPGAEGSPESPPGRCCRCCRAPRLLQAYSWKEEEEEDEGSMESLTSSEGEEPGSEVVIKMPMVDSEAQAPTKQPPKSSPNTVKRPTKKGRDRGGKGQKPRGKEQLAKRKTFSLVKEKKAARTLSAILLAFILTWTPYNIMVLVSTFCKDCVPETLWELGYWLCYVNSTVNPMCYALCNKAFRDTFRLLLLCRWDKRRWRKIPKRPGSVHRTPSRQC
Source text: (§1) European Patent Application No. 89200147 (Publication No. 327155) discloses a class of pyrazines, pyridazines or pyrimidines, and salts and prodrugs thereof, substituted on one of the ring carbon atoms thereof with a non-aromatic azacyclic or azabicyclic ring system; and independently substituted on each of the other ring carbon atoms with a substituent of low lipophilicity or a hydrocarbon substituent, which compounds stimulate cholinergic transmission.
(§2) 1. By the methods disclosed in J. Med. Chem. (1987), 30, 969-975 was determined the functional selectivity of compound (I): […]

M2 (heart) = molecular target: T2, M2 (heart) (Cavia porcellus, UniProt H0VRN8); experiment: functional selectivity, heart M2 antagonist activity (methods of J. Med. Chem. 1987, 30, 969-975); assay type: biochemical, guinea pig
T2 construct: as measured in the guinea pig heart; from tissue; host or cells: guinea pig heart
T2 sequence (H0VRN8 1-466): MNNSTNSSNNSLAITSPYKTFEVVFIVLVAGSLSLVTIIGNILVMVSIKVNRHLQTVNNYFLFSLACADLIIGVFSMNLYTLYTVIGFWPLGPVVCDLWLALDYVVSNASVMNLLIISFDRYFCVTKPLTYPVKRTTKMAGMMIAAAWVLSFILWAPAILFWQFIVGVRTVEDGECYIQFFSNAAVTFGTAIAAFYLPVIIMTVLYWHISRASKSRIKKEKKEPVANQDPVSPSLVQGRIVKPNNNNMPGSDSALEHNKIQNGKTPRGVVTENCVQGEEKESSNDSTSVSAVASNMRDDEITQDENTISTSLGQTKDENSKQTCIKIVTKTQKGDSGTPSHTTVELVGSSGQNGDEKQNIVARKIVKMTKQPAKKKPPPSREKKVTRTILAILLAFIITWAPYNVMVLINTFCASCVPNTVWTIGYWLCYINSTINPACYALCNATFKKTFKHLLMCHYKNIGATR
Source text: as §1, §2

M3 (ileum) = molecular target: T3, M3 (ileum) (Cavia porcellus, UniProt H0W1Z3); experiment: functional selectivity, ileum M3 antagonist activity (methods of J. Med. Chem. 1987, 30, 969-975); assay type: biochemical, guinea pig
T3 construct: guinea pig heart and guinea pig ileum; from tissue; host or cells: guinea pig ileum
T3 sequence (H0W1Z3 1-590): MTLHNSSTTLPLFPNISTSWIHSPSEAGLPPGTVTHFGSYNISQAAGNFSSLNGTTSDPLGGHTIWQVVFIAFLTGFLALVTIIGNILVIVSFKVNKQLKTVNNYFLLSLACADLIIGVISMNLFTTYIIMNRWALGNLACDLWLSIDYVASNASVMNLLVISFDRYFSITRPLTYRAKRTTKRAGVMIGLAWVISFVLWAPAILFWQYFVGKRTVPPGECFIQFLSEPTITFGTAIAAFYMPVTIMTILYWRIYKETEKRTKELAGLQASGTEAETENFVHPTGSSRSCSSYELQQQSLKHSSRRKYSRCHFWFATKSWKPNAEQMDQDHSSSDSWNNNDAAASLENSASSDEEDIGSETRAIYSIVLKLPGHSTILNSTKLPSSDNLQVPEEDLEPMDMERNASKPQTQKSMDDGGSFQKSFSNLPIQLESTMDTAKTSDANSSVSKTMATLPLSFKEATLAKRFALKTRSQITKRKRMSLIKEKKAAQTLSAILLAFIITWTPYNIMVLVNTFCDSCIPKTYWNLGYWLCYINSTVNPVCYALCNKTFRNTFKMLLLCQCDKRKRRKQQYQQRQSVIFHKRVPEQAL
Source text: as §1, §2

intraocular pressure = experiment: Glaucoma method: intraocular pressure in African Green monkeys; assay type: in vivo
Method: Male or female African Green monkeys (2.0-4.5 kg) were fasted following their afternoon feeding on the day prior to the experiment. The monkeys were anaesthetised in their cages with approximately 10 mg/kg i.m. ketamine HCl (Vetalar or Ketaset). Once sedated, the animals were restrained in monkey chairs and brought to the laboratory. One drop of 0.5% proparacaine (Ophthetic) was instilled into each eye. After 30 seconds, intraocular pressure (IOP) determinations were taken in each eye (control or "0" time reading) using a Digilab Modular One Pneuma Tonometer. Both eyes were then flushed with saline. Vehicle or test agent (0.0005-2.0%) was administered (25 μl) into the cul-de-sac of both eyes and the IOP was determined at 0.5 and 1.0 hour and at hourly intervals thereafter for up to 5 hours and compared to the control IOP. For ocular instillation, 0.5% hydroxyethylcellulose (HEC) was employed as the vehicle. Supplemental doses of 10 mg or more/animal i.m. ketamine HCl were given 3-5 minutes prior to IOP determinations. Proparacaine HCl (0.5%) (one drop/eye) was also instilled immediately prior to IOP determinations. Following the final IOP determination, both eyes were flushed liberally with saline and a sterile ophthalmic ointment (Ilotycin, erythromycin, 5 mg/gm) was applied. […] Pupil diameter was measured under standard laboratory lighting conditions using a millimeter ruler. […]

M1 muscarinic receptor = molecular target: T4, M1 muscarinic receptor (Rattus norvegicus, UniProt P08482); experiment: M1 muscarinic activity (method of Newberry et al.); assay type: biochemical
T4 construct: as measured in the rat ganglion; from tissue
T4 sequence (P08482 1-460): T1 sequence (P08482 1-460)
Source text: as §1
The following two compounds: 3(R)-[2-(6-trifluoromethyl) pyrazinyl]-1-azabicyclo[2.2.2]octane (Compound 1), and 3(R)-[2-(6chloro)pyrazinyl]-1-azabicyclo[2.2.2]octane (Compound 2) were tested for muscarinic activity using the method of Newberry, et al. (Br. J. Pharmacol, 1987, pp. 817-876). The specific M1 muscarinic activities of Compound 1 and Compound 2 were determined and the results are as follows: […]

M3 muscarinic receptor [1] = molecular target: T5, M3 muscarinic receptor (Cavia porcellus, UniProt H0W1Z3); experiment: M3 muscarinic activity, ileum preparation (method of Freedman et al.); assay type: biochemical, guinea pig; details: for M3 receptor action (in words): ileum assay
T5 construct: involving ileum preparation; from tissue; host or cells: ileum (guinea pig by b7)
T5 sequence (H0W1Z3 1-590): as above

M3 muscarinic receptor [2] = experiment: as above; assay type: biochemical, guinea pig; details: versus reference 6-Cl compound
[3] = listed as 6-C1 reference compound

## FC(F)(F)c1cncc([C@@H]2CN3CCC2CC3)n1 [(-) base isomer]
M1 (ganglion)
  Ganglion M1 (EC50): no agonist effect
M2 (heart); heart, antagonist, read-out: Heart M2 (pA2) (converted)
  Kb: 100 nM
M3 (ileum); ileum, antagonist, read-out: Ileum M3 (pA2) (converted)
  Kb: 63.1 nM

## FC(F)(F)c1cncc([C@H]2CN3CCC2CC3)n1 [(I): (+) base isomer, (R)-(+)-3-[2-(6-Trifluoromethylpyrazin)yl]-1-azabicyclo[2.2.2]octane]
M1 (ganglion)
  pEC50: 6.70
M2 (heart)
  Kb: 15.8 nM
M3 (ileum)
  Kb: 15.8 nM
Intraocular pressure; 0.05%, 25 μl into cul-de-sac of both eyes, up to 5 hours
  Change in IOP (maximum mm Hg change in intraocular pressure): -3.5 mm Hg
Intraocular pressure; glaucoma test
  intraocular pressure lowering (in words): positive lowering of intraocular pressure
M1 muscarinic receptor
  pEC50: 6.70
M1 muscarinic receptor; listed as 6-CF3 compound
  M1 muscarinic activity (in words): retains M 1 muscarinic agonist activity comparable to that of the reference 6-C1 compound
M1 muscarinic receptor; listed as Compound 1
  M1 muscarinic activity (in words): possess M1 muscarinic activity
M3 muscarinic receptor [1]
  Kb: 15.8 nM
M3 muscarinic receptor [1]; listed as 6-CF3 compound
  M3 receptor action (in words): not an agonist at the M3 receptor; also recorded: not an agonist of M3 receptors
M3 muscarinic receptor [1]; listed as Compound 1
  M3 receptor action (in words): acts as antagonist on M3 receptors
M3 muscarinic receptor [2]
  selectivity of action, M1 over M3 (in words): significantly greater selectivity of action

## Clc1cncc([C@H]2CN3CCC2CC3)n1 [Compound 2, 3(R)-[2-(6chloro)pyrazinyl]-1-azabicyclo[2.2.2]octane, reference compound]
M1 muscarinic receptor
  M1 muscarinic activity (in words): possess M1 muscarinic activity
M1 muscarinic receptor; [3]
  M1 muscarinic activity (in words): agonist on M1 receptors
M3 muscarinic receptor [1]
  pEC50: 7.52
  M3 receptor action (in words): M3 receptor agonist
M3 muscarinic receptor [1]; [3]
  M3 receptor action (in words): agonist on M3 receptors
M3 muscarinic receptor [1]; ileum preparation, antagonist
  M3 muscarinic activity pA2: no measurable pA2 data

## FC(F)(F)c1cncc(C2CN3CCC2CC3)n1 (racemic) [(±) racemate, (±)-3-[2-(6-Trifluoromethylpyrazin)yl]-1-azabicyclo[2.2.2]octane]
M1 (ganglion)
  pEC50: 6.30
M2 (heart)
  Kb: 25.1 nM
M3 (ileum)
  Kb: 79.4 nM
